Experimental data as given in ChEMBL document CHEMBL1156132, “2-Aminopyrazolo[1,5-a]pyrimidines as potent and selective inhibitors of JAK2” (Bioorg Med Chem Lett, 2009).

Tests used:
Conditions in all cases: Sprague-Dawley, rat, iv, 1 mg/kg
in vivo [1] = assay: in vivo
Description: Clearance in Sprague-Dawley rat at 1 mg/kg, iv

in vivo [2] = assay: in vivo; remark: listed apart in the source
Description: Half life in Sprague-Dawley rat at 1 mg/kg, iv

in vivo [3] = assay: in vivo; remark: listed apart in the source

- clearance (in vivo [1]): 104 mL/min/kg
- half-life (in vivo [2]): 54 min
- Vd (in vivo [3]): 5.1 L/kg
SMILES: C[C@@H](Nc1cc(-c2c(N)nn3cccnc23)ncn1)c1ccc(F)cc1
